The test system of test [1] is xylR/Pu regulation system (Pu promoter activity). Description: Induction of Pu promoter (relative bioluminescence, luxCDABE reporter) in Acinetobacter ADP1_pu_lux_xylR. It counts as cell-based, Acinetobacter baylyi ADP1. To be noted: for Induction of Pu promoter: ADP1_pu_lux_xylR, inducer 100 μM in LB, following 30 hrs incubation; for Induction of Pu promoter activity: strain ADPWH_Pu_lux_xylR, bioluminescence from lux genes. On the procedure: Pu promoter activity was monitored by measuring relative bioluminescence (bioluminescence divided by OD600). For each measurement, at each time point 100 μl samples were analyzed in triplicate in a well of a black, clear-bottom 96-well microplate (Fisher Scientific). At OD600 and Bioluminescence were measured using a Synergy HT Multi-Detection Microplate Reader (Bio-Tek™).
A single colony of Acinetobacter sp. ADP_pu_lux_xylR was separately inoculated into 5 ml LB medium in a 30-ml glass universal tube. Toluene, o-, m-, p-xylenes, phenol, benzene, naphthalene, 2-, 3-, or 4-hydroxybenzoic, benzoate or catechol was added into LB (100 μM) to assay induction of Pu. Samples were incubated at 20, 28, 30, 34 or 37° C. with shaking at 150 rpm. Samples were repeatedly loaded on black 96-well microplate for bioluminescence and OD600 measurement for 30 hours of incubation.

For another test, the system named is Pu promoter activity. Put plainly: Catabolic repression of Pu activity in ADP1_pu_lux_xylR grown in minimal medium. Format: cell-based, Acinetobacter baylyi ADP1. The protocol: Pu promoter activity was monitored by measuring relative bioluminescence (bioluminescence divided by OD600). For each measurement, at each time point 100 μl samples were analyzed in triplicate in a well of a black, clear-bottom 96-well microplate (Fisher Scientific). At OD600 and Bioluminescence were measured using a Synergy HT Multi-Detection Microplate Reader (Bio-Tek™). To examine the effect of catabolic repression Acinetobacter sp. ADP1_pu_lux_xylR was inoculated into 5 ml MM supplemented with 50 mM glucose or succinate as a sole carbon source in a 30-ml glass universal tube. […] The bacterial samples were incubated at 28° C. shaker with shaking at 150 rpm. […] For each treatment, three replicates were carried out. Samples were taken and measured for bioluminescence and OD600 every 30 min.

The test system of test [2] is salA promoter operably linked to the lux genes. As to conditions: LB + 6 μg/ml tetracycline + 2 mM salicylate, FIG. 11.
The test system of test [3] is xylR/Pu regulation system (Pu promoter activity). Put plainly: Induction of Pu promoter (relative bioluminescence, luxCDABE reporter) in Acinetobacter ADP1_pu_lux_xylR. Format: cell-based, Acinetobacter baylyi ADP1. To be noted: ADP1_Pu_lux_xylR on LB agar with 10 mM glucose, FIG. 1B; uninduced cells remained dark.

The record followed here is patent US20100029509A1, “NOVEL METHODS” (NATURAL ENVIRONMENT RESEARCH COUNCIL, priority 2006, published 2010).

On to `O=C(O)c1ccccc1O` [2-hydroxybenzoic (salicylic acid), salicylic acid], for which the “Induction of Pu promoter” value in test [1] is on record as “cannot be induced”.

Regarding `c1ccc2ccccc2c1` [naphthalene], the “Induction of Pu promoter” value in test [1] is given as “cannot be induced”.

Consider `Oc1ccccc1O` [catechol], for which the “Induction of Pu promoter” value in test [1] was “cannot be induced”.

Regarding `Cc1cccc(C)c1` [m-xylene], the “Induction of Pu promoter activity” value in test [1] is reported as “can be induced”.

Consider `O=C(O)CCC(=O)O` [succniate, succinate], for which the “Repression of Pu activity by sole carbon source” value with Pu promoter activity (minimal medium with 50 mM carbon source, toluene, m-, p- or o-xylene 500 μM as inducers, 28° C., FIG. 3A) is recorded as “did”.

Take `Cc1ccccc1` [toluene]: the “Induction of Pu promoter activity” value in test [1] was “can be induced”.

Take `Cc1ccccc1C` [o-xylene]: the “Induction of Pu promoter activity” value in test [1] is “can be induced”.

Take `c1ccccc1` [benzene]: the “Induction of Pu promoter” value in test [1] was “cannot be induced”.

As to `O=C(O)c1cccc(O)c1` [3-hyroxybenzoic], in test [1], the “Induction of Pu promoter” value is recorded as “cannot be induced”.

Consider “6-phosphogluconic acid trisodium salt [6-phosphogluconate, reference compound]”, for which, in the test on Pu promoter activity (added to MM-glucose at 0.1-300 μM after maximal induction by m-xylene, data not shown), the “Effect on Pu activity of added candidate repression signal molecule” value was “did not affect Pu activity”.

As to `O=C(O)c1ccc(O)cc1` [4-hydroxybenzoic], the “Induction of Pu promoter” value in test [1] was “cannot be induced”.

For the compound `O=C(O)c1ccccc1` [benzoate], the “Induction of Pu promoter” value in test [1] was “cannot be induced”.

Take `Oc1ccccc1` [phenol]: in test [1], the “Induction of Pu promoter” value was “cannot be induced”.

Take `O=C(O)c1ccccc1O` [salicylate]: in test [2], the “Activation by salicylate, Transformant B (negative)” value is given as “not activated”.

`Cc1ccc(C)cc1` [p-xylene]: the “Induction of Pu promoter activity” value in test [1] is “can be induced”.

Turning to xylene, the “Bioluminescence on agar medium when induced by vapors” value in test [3] is reported as “strong bioluminescence”.
